Source: patent publication US20070128217A1 (priority 2003, published 2007)

Columns and labels:
[1] = tested on: rabbit serum obtained by immunizing a rabbit with the SARS-CoV strain Frankfurt 1; type: binding; design: Binding of a rabbit serum to linear peptides / Binding of a rabbit serum to looped peptides / Rabbit serum linear peptides / Rabbit serum looped peptides / Binding of a rabbit serum to linear peptides of protein N of SARS-CoV Urbani (Rabbit serum linear peptides) / Binding of a rabbit serum to looped/cyclic peptides of protein N of SARS-CoV Urbani (Rabbit serum looped peptides): unit not given here
[2] = tested on: control sera (pooled serum of ten healthy LUMC hospital workers; commercial negative donor pooled serum from the Dutch bloodbank); type: binding, human; design: Binding of Control serum LUMC to linear peptides / Binding of Control serum Blood-bank to linear peptides / Binding of Control serum LUMC to looped peptides / Binding of Control Serum Blood-Bank to Looped peptides / Binding of Control serum LUMC to linear peptides of the protein M of SARS-CoV Urbani / Binding of Control serum Blood-bank to linear peptides of the protein M of SARS-CoV Urbani / Binding of Control serum LUMC to looped peptides of the protein M of SARS-CoV Urbani / Binding of Control Serum Blood-Bank to Looped peptides of the protein M of SARS-CoV Urbani: unit not given here
[3] = tested on: recombinant human anti-SARS-CoV antibody 03-018; type: binding; design: Binding of antibody 03-018 to linear peptides of the N protein of SARS-CoV Urbani / Binding of antibody 03-018 to looped/cyclic peptides of the N protein of SARS-CoV Urbani: unit not given here
[4] = tested on: antibodies in sera from SARS patients (sera 1a, 1b, 2, 6, 37, 62, London, SARS-yellow, SARS-green); type: binding, human; design: Binding of serum 6 to linear peptides of protein X1 of SARS-CoV Urbani / Binding of serum 37 to linear peptides of protein X1 of SARS-CoV Urbani / Binding of serum 6 to looped/cyclic peptide (PEPSCAN-ELISA) / Binding of serum 37 to looped/cyclic peptide (PEPSCAN-ELISA) / Binding of serum 37 to looped/cyclic peptides of protein X1 of SARS-CoV Urbani / Binding of serum 6 to linear peptides of protein X2 / Binding of serum 37 to linear peptides of protein X2 / Binding of serum 37 to looped/cyclic peptides of protein X2 of SARS-CoV Urbani / Binding of serum 6 to linear peptides of protein M of SARS-CoV Urbani / Binding of serum 37 to linear peptides of protein M of SARS-CoV Urbani / Binding of serum 6 to looped/cyclic peptides of protein M of SARS-CoV Urbani / Binding of serum 37 to looped/cyclic peptides of protein M of SARS-CoV Urbani / Binding of serum 6 to linear peptides of protein X3 of SARS-CoV Urbani / Binding of serum 37 to linear peptides of protein X3 of SARS-CoV Urbani / Binding of serum 37 to looped/cyclic peptides of protein X3 of SARS-CoV Urbani / Binding of serum 6 to linear peptides of protein X4 of SARS-CoV Urbani / Binding of serum 37 to linear peptides of protein X4 of SARS-CoV Urbani / Binding of serum 37 to looped/cyclic peptides of protein X4 of SARS-CoV Urbani / Binding of serum 6 to linear peptides of protein X5 of SARS-CoV Urbani / Binding of serum 37 to linear peptides of protein X5 of SARS-CoV Urbani / Binding of serum 37 to looped/cyclic peptides of protein X5 of SARS-CoV Urbani / Binding of serum 6 to linear peptides of protein N of SARS-CoV Urbani / Binding of serum 37 to linear peptides of protein N of SARS-CoV Urbani / Binding of serum 6 to linear peptide (PEPSCAN-ELISA) / Binding of serum 1a to looped/cyclic peptides of protein N of SARS-CoV Urbani / Binding of serum 1b to looped/cyclic peptides of protein N of SARS-CoV Urbani / Binding of serum 2 to looped/cyclic peptides of protein N of SARS-CoV Urbani / Binding of serum 6 to looped/cyclic peptides of protein N of SARS-CoV Urbani / Binding of serum 37 to looped/cyclic peptides of protein N of SARS-CoV Urbani / Binding of serum 62 to looped/cyclic peptides of protein N of SARS-CoV Urbani / Binding of serum London to looped/cyclic peptides of protein N of SARS-CoV Urbani / Binding of serum SARS-green to looped/cyclic peptides of protein N of SARS-CoV Urbani: unit not given here

Row | Sequence | Binding of a rabbit serum to linear peptides of protein N of SARS-CoV Urbani (Rabbit serum linear peptides) [1] | Binding of a rabbit serum to looped/cyclic peptides of protein N of SARS-CoV Urbani (Rabbit serum looped peptides) [1] | Binding of Control Serum Blood-Bank to Looped peptides [2] | Binding of Control serum Blood-bank to linear peptides [2] | Binding of Control serum LUMC to linear peptides [2] | Binding of Control serum LUMC to looped peptides [2] | Binding of antibody 03-018 to linear peptides of the N protein of SARS-CoV Urbani [3] | Binding of antibody 03-018 to looped/cyclic peptides of the N protein of SARS-CoV Urbani [3] | Binding of serum 1a to looped/cyclic peptides of protein N of SARS-CoV Urbani [4] | Binding of serum 1b to looped/cyclic peptides of protein N of SARS-CoV Urbani [4] | Binding of serum 2 to looped/cyclic peptides of protein N of SARS-CoV Urbani [4] | Binding of serum 6 to looped/cyclic peptides of protein N of SARS-CoV Urbani [4] | Binding of serum 37 to looped/cyclic peptides of protein N of SARS-CoV Urbani [4] | Binding of serum 62 to looped/cyclic peptides of protein N of SARS-CoV Urbani [4] | Binding of serum London to looped/cyclic peptides of protein N of SARS-CoV Urbani [4] | Binding of serum SARS-green to looped/cyclic peptides of protein N of SARS-CoV Urbani [4] | Binding of serum SARS-yellow to looped/cyclic peptides of protein N of SARS-CoV Urbani [4] | Binding of serum 1a to linear peptides of protein N of SARS-CoV Urbani [4] | Binding of serum 1b to linear peptides of protein N of SARS-CoV Urbani [4] | Binding of serum 2 to linear peptides of protein N of SARS-CoV Urbani [4] | also measured
1 | NQLESKVSGKGQQQQ | 0.2 | 0.5 | 0.7 | 0.8 | 0.9 | 0.7 | 0.1 | 0.3 | 0.4 | 0.2 | 0.5 | 0.3 | 0.6 | 0.5 | 0.5 | 0.3 | 0.6 | – | – | – | Binding of serum 1a to linear peptide (PEPSCAN-ELISA) [4]: 0.3; Binding of serum 1b to linear peptide (PEPSCAN-ELISA) [4]: 0.2; Binding of serum 2 to linear peptide (PEPSCAN-ELISA) [4]: 0.3; Binding of serum 6 to linear peptide (PEPSCAN-ELISA) [4]: 0.2; Binding of serum 37 to linear peptide (PEPSCAN-ELISA) [4]: 0.7; Binding of serum 62 to linear peptide (PEPSCAN-ELISA) [4]: 0.8; Binding of serum London to linear peptide (PEPSCAN-ELISA) [4]: 0.6; Binding of serum SARS-green to linear peptide (PEPSCAN-ELISA) [4]: 0.5; Binding of serum SARS-yellow to linear peptide (PEPSCAN-ELISA) [4]: 0.7
2 | PINTNSGPDDQIGYY | 0.1 | 0.4 | 0.5 | 0.7 | 0.7 | 0.6 | 0.1 | 0.2 | 0.4 | 0.4 | 0.4 | 0.2 | 0.7 | 0.5 | 0.4 | 0.8 | 0.5 | 0.2 | 0.2 | 0.2 | Binding of serum 6 to linear peptides of protein N of SARS-CoV Urbani [4]: 0.2; Binding of serum 37 to linear peptides of protein N of SARS-CoV Urbani [4]: 0.9; Binding of serum 62 to linear peptides of protein N of SARS-CoV Urbani [4]: 0.7; Binding of serum London to linear peptides of protein N of SARS-CoV Urbani [4]: 0.4; Binding of serum SARS-green to linear peptides of protein N of SARS-CoV Urbani [4]: 0.3; Binding of serum SARS-yellow to linear peptides of protein N of SARS-CoV Urbani [4]: 0.6
3 | PKKDKKKKTDEAQPL | 0.1 | 0.0 | – | – | – | – | 0.1 | 0.2 | 0.2 | 0.1 | 0.2 | 0.1 | 0.4 | 0.3 | 0.3 | 0.1 | 0.2 | 0.2 | 0.1 | 2.5 | Control Serum Blood-Bank Looped peptides [2]: 0.4; Control serum Blood-bank linear peptides [2]: 0.8; Control serum LUMC linear peptides [2]: 0.8; Control serum LUMC looped peptides [2]: 0.3; Binding of serum 6 to linear peptides of protein N of SARS-CoV Urbani [4]: 0.2; Binding of serum 37 to linear peptides of protein N of SARS-CoV Urbani [4]: 0.7; Binding of serum 62 to linear peptides of protein N of SARS-CoV Urbani [4]: 0.7; Binding of serum London to linear peptides of protein N of SARS-CoV Urbani [4]: 0.5; Binding of serum SARS-green to linear peptides of protein N of SARS-CoV Urbani [4]: 0.1; Binding of serum SARS-yellow to linear peptides of protein N of SARS-CoV Urbani [4]: 0.5
4 | LIRQGTDYKHWPQIA | 0.2 | 0.0 | 0.6 | 0.7 | 0.7 | 0.5 | 0.1 | 0.1 | 0.4 | 0.5 | 0.5 | 0.3 | 0.6 | 0.5 | 0.3 | 1.0 | 1.1 | 0.3 | 0.2 | 0.4 | Binding of serum 6 to linear peptides of protein N of SARS-CoV Urbani [4]: 0.2; Binding of serum 37 to linear peptides of protein N of SARS-CoV Urbani [4]: 0.8; Binding of serum 62 to linear peptides of protein N of SARS-CoV Urbani [4]: 0.9; Binding of serum London to linear peptides of protein N of SARS-CoV Urbani [4]: 0.9; Binding of serum SARS-green to linear peptides of protein N of SARS-CoV Urbani [4]: 0.4; Binding of serum SARS-yellow to linear peptides of protein N of SARS-CoV Urbani [4]: 0.6
